{"source": "patent US20230263822A1", "about": "“MODULATION OF FACTOR 11 EXPRESSION” (Ionis Pharmaceuticals, Inc., priority 2008, published 2023)", "key": {"[1]": {"test": "Tail bleeding assay vs warfarin (Example 12)", "method": "A separate control group of BALB/c mice was treated with PBS, administered subcutaneously twice a week for 3 weeks.\nMice were anesthetized in the chamber with isoflurane and a small piece of tail (approximately 4 mm from the tip) was cut with sterile scissors. The tail cut was immediately placed in a 15 mL Falcon tube filled with approximately 10 mL of 0.9% NaCl buffer solution warmed to 37° C. The blood was collected over the course of 40 minutes. The saline filled tubes were weighed both before and after bleeding."}, "blood coagulation [2]": {"test_system": "blood coagulation", "test": "PT and aPTT, combination with warfarin (Example 21)", "type": "in vivo, BALB/c mice", "method": "Plasma was collected from each group 5 days after the last dose was administered. […] In a final group of BALB/c mice, PBS was administered subcutaneously twice a week for three weeks, as a control. Plasma was collected 5 days after the last PBS treatment.\nPT and aPTT values provided in Table 33 are reported as International Normalized Ratio (INR) values."}, "[3]": {"test": "Collagenase-induced intracerebral hemorrhage model: hemorrhage volume, neurologic deficit score, mortality (Example 25)", "type": "in vivo, BALB/c mice", "conditions": "ISIS oligonucleotides 40 mg/kg s.c., warfarin 2 mg/kg intraperitoneally, twice a week for two weeks", "method": "In a first cohort, ISIS 404071 was administered subcutaneously to BALB/c mice twice a week for two weeks at a dose 40 mg/kg. […] In a third cohort, ISIS 421208 ([…], 8 mismatches to murine Factor 11, incorporated herein as SEQ ID NO: 14) was administered subcutaneously to BALB/c mice twice a week for two weeks at a dose 40 mg/kg. In a fourth cohort, PBS was administered to BALB/c mice twice a week for two weeks.\nTwo days after receiving their final dose, all mice in all cohorts were anesthetized with […] of avertin. Next, the mice were injected at −1 mm AP, 1 mm R ML, −4 mm DV from bregma flat skull with a 10 μL Hamilton syringe containing 0.075 U collagenase (150 U/mL). Collagenase was delivered over 5 minutes and the needle was kept in place for an additional 5 minutes to prevent reflux. The mice were then analyzed for hemorrhagic size, neurologic deficit score, and mortality.\nTable 37 presents the hemorrhage volume detected in mice after collagenase treatment, Table 38 presents the neurologic deficit score of the mice, and Table 39 presents the mortality rate of the mice. Neurological deficit is measured by a standard scoring system where no deficiency is zero and severe deficit is five."}, "Factor 11 mRNA": {"test_system": "Factor 11 mRNA", "test": "Factor 11 mRNA in liver, FeCl3 induced venous thrombosis model vs warfarin (Example 11)", "type": "in vivo, BALB/c mice", "conditions": "FeCl3 induced VT model; ISIS 404071 1.25-40 mg/kg s.c. twice a week 3 weeks; warfarin 0.5-5 mg/kg daily 6 days", "method": "(§1) Two control groups of BALB/c mice were treated with PBS, administered subcutaneously twice a week for 3 weeks. Two days after the last dose of PBS, mice in both groups were anesthetized with 150 mg/kg ketamine mixed with 10 mg/kg xylazine administered by intraperitoneal injection. Thrombus formation was induced with FeCl3 in all groups of mice except the first control group.\n(§2) In mice undergoing FeCl3 treatment, thrombus formation was induced by applying a piece of filter paper (2×4 mm) pre-saturated with 10% FeCl3 solution directly on the vena cava. After 3 minutes of exposure, the filter paper was removed. Thirty minutes after the filter paper application, a fixed length of the vein containing the thrombus was dissected out for platelet analysis. Liver was collected for RNA analysis.\nRNA was extracted from liver tissue for real-time PCR analysis of Factor 11."}, "platelet factor-4 (PF-4)": {"test_system": "platelet factor-4 (PF-4)", "test": "Thrombus formation by PF-4 real-time PCR, FeCl3 induced venous thrombosis model vs warfarin (Example 11)", "type": "in vivo, BALB/c mice", "conditions": "for PF-4 in vena cava, percentage as compared to PBS controls (thrombus formation): + FeCl3", "method": "as §1, §2\nReal-time PCR quantification of platelet factor-4 (PF-4) was used to quantify platelets in the vena cava as a measure of thrombus formation."}, "blood coagulation [4]": {"test_system": "blood coagulation", "test": "PT and aPTT vs warfarin (Example 13)", "type": "in vivo, BALB/c mice", "conditions": "for aPTT INR / PT INR: PPP two days after final dose", "method": "In a control group, BALB/c mice were treated with PBS, administered subcutaneously mice twice a week for 3 weeks.\nTwo days after the final dose was administered, PPP was collected and PT and aPTT assays were performed.\nPT and aPTT values provided in Table 16 are reported as International Normalized Ratio (INR) values. […] This ratio was then raised to the power of the International Sensitivity Index (ISI) of the tissue factor used."}, "[5]": {"test_system": "mesenteric vein thrombosis", "test": "Mesenteric vein thrombosis, intravital microscopy (Example 22)", "type": "in vivo", "conditions": "C57BL/6 mice, 50 mg/kg s.c. twice a week for three weeks, 10% FeCl3 on mesenteric vein", "method": "In a first cohort, ISIS 404071 was administered subcutaneously to C57BL/6 mice twice a week for three weeks at a dose of 50 mg/kg. In a second cohort, a control oligonucleotide, ISIS 405277 ([…]; antisense oligonucleotide for Factor 2), incorporated herein as SEQ ID NO: 12 was administered subcutaneously to C57Bl/6 mice twice a week for three weeks at a dose of 50 mg/kg.\nBlood was collected from the retro-orbital venous plexus of naïve C57BL/6 mice by puncture and collected in polypropylene tubes containing 300 μl of heparin (30 U/ml). Platelet rich plasma (PRP) was obtained by centrifugation at 1000 rpm for 5 min. The PRP was transferred to fresh tubes containing 2 μl of Prostaglandin I2 (PGI2) (2 μg/ml) and incubated at 37° C. for 5 min. After centrifugation at 2600 rpm, pellets were resuspended in 1 ml modified Tyrode's-HEPES buffer (137 mM NaCl, 0.3 mM Na2HPO4, 2 mM KCl, 12 mM NaHCO3, 5 mM HEPES, 5 mM glucose, 0.35% BSA, pH 7.2) containing 2 μl of PGI2 and incubated at 37° C. for 5 min. The suspended pellet was centrifuged at 2600 rpm for 5 min. To remove PGI2, the washing step was repeated twice and platelets were fluorescently labeled with calcein AM 2.5 μg/mL (Molecular Probes, Eugene, Oreg.) for 10 min at room temperature.\nFluorescently-labeled platelets were injected intravenously in ISIS 404071 treated and control oligonucleotide treated C57BL/6 mice. […] The exposed mesentery was kept moist throughout the experiment by periodic superfusion with warmed (37° C.) PBS. The mesentery was transluminated with a 12V, 100 W, DC stabilized source. Veins were visualized using a Zeiss (Germany) Axiovert 135 inverted microscope (Objective 32X) connected to an SVHS video recorder (AG-6730; Panasonic, Tokyo, Japan) using a CCD video camera (Hamamatsu Photonic Systems, Hamamatsu City, Japan). Centerline erythrocyte velocity (Vrbc) was measured using an optical Doppler velocimeter (Microcirculation Research Institute, Texas A&M College of Medicine, College Station, Tex.). Venular shear rate (τ) was calculated based on Poiseuille's Law for a newtonian fluid, τ=8(Vmean/Dv), where Dv is the diameter of the venule and Vmean is estimated from the measured Vrbc using the empirical correlation Vmean=Vrbc/1.6.\nMesenteric vein thrombosis was performed two days after the last antisense oligonucleotide injection. Thrombosis was induced by applying Whatman paper soaked in a 10% FeCl3 solution for 5 minutes on the mesenteric vein. The vein was monitored for 40 minutes, or until occlusion. The elapsed time before the first thrombus 30-50 μm in diameter and the elapsed time before blood stopped flowing for 30 seconds were observed."}, "[6]": {"conditions": "Warfarin 0.5 mg/kg intraperitoneally daily for 6 days"}, "[7]": {"conditions": "Warfarin 1 mg/kg intraperitoneally daily for 6 days"}, "[8]": {"conditions": "Warfarin 2 mg/kg intraperitoneally daily for 6 days"}, "[9]": {"conditions": "Warfarin 3 mg/kg intraperitoneally daily for 6 days"}, "[10]": {"conditions": "Warfarin 4 mg/kg intraperitoneally daily for 6 days"}, "[11]": {"conditions": "Warfarin 5 mg/kg intraperitoneally daily for 6 days"}, "[12]": {"conditions": "BALB/c mice, ISIS 404071 25 or 50 mg/kg, warfarin 2 mg/kg"}, "[13]": {"conditions": "Warfarin 2 mg/kg once daily for 5 days"}, "[14]": {"conditions": "BALB/c mice, ISIS 404071 1.25-40 mg/kg, warfarin 0.5-5 mg/kg"}}, "data": [{"molecule": "CC(=O)CC(c1ccccc1)c1c(O)c2ccccc2oc1=O", "note": "(centres unmarked) [warfarin]", "values": [{"measurement": "bleeding in tail bleeding assay", "setting": "[1]; BALB/c mice, compared to PBS treated mice", "result": "did increase bleeding"}, {"measurement": "Blood (tail bleeding, collected over 40 minutes)", "setting": "[1]; [6]", "result": 0.07, "unit": "g"}, {"measurement": "Blood (tail bleeding, collected over 40 minutes)", "setting": "[1]; [7]", "result": 0.35, "unit": "g"}, {"measurement": "Blood (tail bleeding, collected over 40 minutes)", "setting": "[1]; [8]", "result": 0.39, "unit": "g"}, {"measurement": "Blood (tail bleeding, collected over 40 minutes)", "setting": "[1]; [9]", "result": 0.51, "unit": "g"}, {"measurement": "Blood (tail bleeding, collected over 40 minutes)", "setting": "[1]; [10]", "result": 0.52, "unit": "g"}, {"measurement": "Blood (tail bleeding, collected over 40 minutes)", "setting": "[1]; [11]", "result": 0.76, "unit": "g"}, {"measurement": "PT", "setting": "blood coagulation [2]; [12]", "result": "increase PT"}, {"measurement": "aPTT", "setting": "blood coagulation [2]; [12]", "result": "affected"}, {"measurement": "PT INR", "setting": "blood coagulation [2]; [13]", "result": 21.33, "unit": "INR"}, {"measurement": "aPTT INR", "setting": "blood coagulation [2]; [13]", "result": 2.52, "unit": "INR"}, {"measurement": "% mortality after collagenase treatment", "setting": "[3]", "result": 80, "unit": "%"}, {"measurement": "Factor 11 mRNA in liver vs PBS control", "setting": "Factor 11 mRNA", "result": "did not result in significant reduction of Factor 11"}, {"measurement": "PF-4 in vena cava as measure of thrombus formation", "setting": "platelet factor-4 (PF-4); FeCl3 induced VT model, vs PBS control", "result": "reduction of PF-4 in comparison to the PBS control for dosages of 2 mg/kg and higher"}, {"measurement": "PF-4 in vena cava, percentage as compared to PBS controls (thrombus formation)", "setting": "platelet factor-4 (PF-4); [6]", "result": 128, "unit": "%"}, {"measurement": "PF-4 in vena cava, percentage as compared to PBS controls (thrombus formation)", "setting": "platelet factor-4 (PF-4); [7]", "result": 124, "unit": "%"}, {"measurement": "PF-4 in vena cava, percentage as compared to PBS controls (thrombus formation)", "setting": "platelet factor-4 (PF-4); [8]", "result": 80, "unit": "%"}, {"measurement": "PF-4 in vena cava, percentage as compared to PBS controls (thrombus formation)", "setting": "platelet factor-4 (PF-4); [9]", "result": 21, "unit": "%"}, {"measurement": "PF-4 in vena cava, percentage as compared to PBS controls (thrombus formation)", "setting": "platelet factor-4 (PF-4); [10]", "result": 12, "unit": "%"}, {"measurement": "PF-4 in vena cava, percentage as compared to PBS controls (thrombus formation)", "setting": "platelet factor-4 (PF-4); [11]", "result": 33, "unit": "%"}, {"measurement": "PT", "setting": "blood coagulation [4]; [14]", "result": "significantly prolonged at every dosage"}, {"measurement": "aPTT", "setting": "blood coagulation [4]; [14]", "result": "prolonged, particularly at dosages of 1 mg/kg and higher"}, {"measurement": "aPTT INR", "setting": "blood coagulation [4]; [6]", "result": 1.10, "unit": "INR"}, {"measurement": "PT INR", "setting": "blood coagulation [4]; [7]", "result": 2.03, "unit": "INR"}, {"measurement": "aPTT INR", "setting": "blood coagulation [4]; [7]", "result": 1.31, "unit": "INR"}, {"measurement": "PT INR", "setting": "blood coagulation [4]; [8]", "result": 2.77, "unit": "INR"}, {"measurement": "aPTT INR", "setting": "blood coagulation [4]; [8]", "result": 1.54, "unit": "INR"}, {"measurement": "PT INR", "setting": "blood coagulation [4]; [9]", "result": 22.76, "unit": "INR"}, {"measurement": "aPTT INR", "setting": "blood coagulation [4]; [9]", "result": 2.90, "unit": "INR"}, {"measurement": "PT INR", "setting": "blood coagulation [4]; [10]", "result": 6.74, "unit": "INR"}, {"measurement": "aPTT INR", "setting": "blood coagulation [4]; [10]", "result": 2.18, "unit": "INR"}, {"measurement": "PT INR", "setting": "blood coagulation [4]; [11]", "result": 9.20, "unit": "INR"}, {"measurement": "aPTT INR", "setting": "blood coagulation [4]; [11]", "result": 2.29, "unit": "INR"}]}, {"molecule": "ISIS 405277: control oligonucleotide AAGGACCTACACTATGGAAT; antisense oligonucleotide for Factor 2 (listed as DNA, chemistry not given here) [reference compound]", "values": [{"measurement": "time of occlusion (occlusive thrombi)", "setting": "[5]", "result": "19.3 ± 0.8", "unit": "min"}, {"measurement": "time of thrombus formation (30 μm in diameter)", "setting": "[5]", "result": "8.9 ± 0.6", "unit": "min"}]}]}
